# Source: patent US10016409B2, “Method for improving interstitial flow” (priority 2012, dated 2018)
# Values joined by “and” are separate entries in the source; they are usually repeats but may differ in a detail not shown here. Equal entries are not always repeated.
# Assays:
# MCI patients = experiment: Retrospective clinical survey, MMSE change in patients with first MMSE score 22 to 26 (MCI), no anti-dementia drugs; format: in vivo, human
# From the text: Harmful proteins such as tau protein, α-synuclein protein, amyloid β protein, and ubiquitinated protein, which cause disorders in nerve function, are gradually accumulated in the brain with age. Irrespective of the type of accumulated harmful proteins, mild disorders in cognitive function is observed in an initial stage. However, in this stage, irreversible neuron degeneration in cranial nerve tissues has been seldom observed yet. Thus, activation of the interstitial flow, which is one of major drainage pathways of harmful proteins, might cure mild disorders of cognitive function. To examine this hypothesis, it was evaluated how consecutive oral administration of cilostazol affects cognitive functions of patients having MMSE scores greater than or equal to 22 and less than or equal to 26 and suspected to have mild deterioration of cognitive function.
# A survey was conducted on consecutive cases (3183 cases in total) between 1996 and 2012 whose records of cilostazol administration exist, and examination using all the cases that match the following conditions was carried out. In this examination, to eliminate the influence of anti-dementia drugs, all the patients administered with anti-dementia drugs such as donepezil were removed from the analysis.
# (i) The mini mental state exam (MMSE), which is a typical test of cognitive function, was performed twice or more with an interval of 6 months or more a case where the MMSE was performed three or more times, two examination results of the first examination and the last examination were selected);
# (ii) The first MMSE score was greater than or equal to 22 and less than or equal to 26;
# (iii) A case in which cilostazol was administered in a period at least more than a half of an MMSE observation period was selected as a group (hereinafter referred to as a treated group) subjected to consecutive treatment; and
# (iv) A case in which cilostazol was administered in two months or less in the MMSE observation period was selected as a group (hereinafter referred to as an untreated group) not subjected to consecutive treatment.
# (i) The rate of change in MMSE scores in each group (calculation method: [last MMSE score−first MMSE score]/MMSE observation period [years]); and
# (ii) The rate of change in scores in each item of the MMSE test in each group (calculation method: [score of last MMSE test item−score of first MMSE test item]/MMSE observation period [years]).
# In comparison between the two groups, statistical analysis was conducted such that the rate difference was obtained by using a chi-square test and other items were obtained by using a t test.
# Tg-SwDI mice [1] = experiment: Cerebral artery reactivity to CO2 supply (vascular pulsation driving force) in Tg-SwDI mice; format: in vivo; conditions: vs ordinary feed group
# From the text: In brain interstitial flow in a central nervous system, vascular wall motion caused by vascular pulsation of artery serves as a driving force so that harmful proteins are excreted (see Mechanisms to explain the reverse perivascular transport of solutes out of the brain. J Theor Biol. 2006 Feb. 21; 238(4): 962-74), Dilation of artery in vascular pulsation is caused by an increased blood pressure in artery due to pulsation of heart, and a decrease in dilation ability of artery attenuates vascular wall motion, and also reduces the interstitial flow. […] The degree of vascular elasticity in cerebral artery can be evaluated by using reactivity with a change in the concentration of blood carbon dioxide. Specifically, cerebral artery whose vascular elasticity and vascular pulsation driving force are maintained, has the ability of sufficiently dilating the vessel diameter afer an increase in the concentration of blood carbon dioxide, and maintains excretion ability for harmful proteins through h interstitial flow. On the other hand, cerebral artery whose vascular elasticity and vascular pulsation driving force are decreased, loses the ability of sufficiently dilating the vessel diameter in response to an increase in the concentration of blood carbon dioxide, and has its escretion ability for harmful proteins impaired. […]
# Tg-SwDI mice [2] = experiment: Drainage of injected fluorescent label Aβ1-40 through perivascular interstitial fluid pathway; format: in vivo; conditions: single images FIGS. 8 to 10, 30 minutes after injection into striate, cilostazol-containing feed group
# From the text: To verify interstitial flow improvement by cilostazol, harmful protein drainage facilitation by cilostazol was examined by using a cerebral amyloid angiopathy model. Totally unlike a drainage system through a specific receptor or antigen-antibody reaction, drainage of harmful proteins through the interstitial flow is a general drainage system irrespective of the type and amount of proteins, and Aβ in these examples is merely an example of intracerebral harmful proteins for which the interstitial flow is improved so that drainage is facilitated.
# After 15 months from the start of breeding, with respect to Tg-SwDI mice (n=4) of a group administered with cilostazol-containing feed for 13.5 months and Tg-SwDI mice (n=3) of the ordinary feed administered group, Tg-SwDI mice were placed at the prone position under inhalation anesthesia using 1.5% isoflurane, midline incision of scalp was performed, and then, by using a 32 G micropipet, such that a fluorescent label Aβ1-40 was injected for 30 seconds in the manner of stereotaxy into the striate of Tg-SwDI mice (a front part of 0.98 mm and a side part of 1.5 mm in bregma) as indicated by the arrow in FIG. 7. The depth from the brain surface to the injection site of the striate was 3.0 mm, and the fluorescent label Aβ1-40 was purchased from AnaSpec (San Jose, Calif., USA). […]
compound,measurement,setting,value
"O=C1CCc2cc(OCCCCc3nnnn3C3CCCCC3)ccc2N1 [cilostazol, 6-[4-(1-cyclohexyl-1H-tetrazole-5-yl)butoxy]3,4-dihydrocarbostyril]",increase in MMSE scores (treated vs untreated group),"MCI patients; MCI patients, as described in Example (4)",about 4
same,rate of change in MMSE score,"MCI patients; MCI treated group (31 cases), first MMSE 22-26, average±standard error, P=0.007 vs untreated",0.4±0.7 per year
same,rate of change in MMSE item 5 of delayed recall,"MCI patients; MCI treated group, score change/observation period [years], P=0.004 vs untreated",0.16±0.13
same,rate of change in MMSE item 9 of command with sentence,"MCI patients; MCI treated group, score change/observation period [years], P=0.008 vs untreated",0.01±0.06
same,rate of change in MMSE item 11 of visual configuration,"MCI patients; MCI treated group, score change/observation period [years], P=0.02 vs untreated",0.03±0.08
same,rate of change in MMSE item 1 of orientation to time,"MCI patients; MCI treated group, score change/observation period [years], P=0.03 vs untreated",−0.13±0.16
same,side effects leading to no consecutive cilostazol treatment,MCI patients; untreated group of MCI survey,side effects such as diarrhea and headaches
same,cerebral artery vasodilation ability with the CO2 supply (relative increase in cerebrovascular diameter),"Tg-SwDI mice [1]; 5% CO2, cilostazol-containing feed for 13.5 months, age 15 months, FIG. 5",significantly enhances cerebral artery vasodilation ability
same,cerebral artery vasodilation ability (relative increase rate of the vessel diameter) by the CO2 supply,"Tg-SwDI mice [1]; cilostazol-containing feed for 8 months, age 12 months, FIG. 6",significantly increases the cerebral artery vasodilation ability
same,distance of fluorescent label Aβ1-40 accumulation site of a leptomeninges vessel from the injection site,Tg-SwDI mice [2],2922 μm and 3422 μm and 3507 μm
